From US12239714B2, “Phosphatidylserine-binding conjugates” (CANBAS CO., LTD., priority 2021, dated 2025)
“Also recorded” adds a separate entry of the source.

How the values were obtained:
[1] = tested on: CT-26 mouse colon cancer cell line; experiment: Tumor growth curves of subcutaneously implanted CT-26 in syngeneic BALB/c mice (FIGS. 4A-4D); type: in vivo; conditions: for mouse body weight, compared with the triple drug combination: 100 μg/mouse iv added to Cisplatin+CBP501+anti-CTLA4, data not shown; for CT26 tumor growth, conjugate added to Cisplatin+CBP501+anti-CTLA4 treatment: 100 μg/mouse iv, day 2×2, day 3×1
Method: BALB/c mice were implanted subcutaneously with 5×10^5 cells mice colon cancer cell line, CT-26WT, at day −10 when the mice were at the age 6 weeks. Six mice made a group for each treatment when the average tumor size was 205 mm^3 (132-279 mm^3). Treatments were done as follows when the mice were at the age 8 weeks with body weight 19.5 to 24.5 g and tumor size were measured three times in a week.
Dosing schedule (“ip”: intraperitoneal injection; “iv”: intravenous injection): • Diphenhydramine (ip): 10 mg/kg (15 min before Cisplatin/CBP501 on day 1) • Cisplatin (iv): 4 mg/kg (day 1) • CBP501 (iv): 6 mg/kg (day 1) • Anti-CTLA4 antibody (ip) 200 μg/mouse (day2, 4) • TSA005,006 in saline (iv): 100 μg/mouse (day 2×2, day3×1) • TSA015 in HEPES (iv): 100 μg/mouse (day 2×2, day3×1) • Vehicle: saline (iv): 100 μL/mouse (day 2×2, day3×1) Distribution of the Cy5.5 Version of TSA006 (TSA013) in BALB/c Mouse. (FIG. 5)

[2] = tested on: CT26 colon cancer cell line; experiment: Syngeneic mice model, TSA005 (FIG. 1): growth of subcutaneous CT26 tumor; type: in vivo, BALB/c mice
Method: (§1) All animal studies were conducted according to protocols approved by institutional animal care committee of CanBas Co., Ltd. Six-week-old female BALB/c mice (The Jackson Laboratories Japan, Inc., Kanagawa, Japan) were inoculated subcutaneously in a flank with a suspension of CT26WT cells (5×10^5 cells). Ten days later mice were apportioned into 5 groups (6-8 mice/group) and treatments were initiated on day1.
The first cycle of the treatments was on day 1 to 5 and the second cycle was on day 10 to 14 as follows.
Cisplatin: Intravenous injection (i.v.) of Cisplatin 4 mg/kg and 5% Glucose on Day 1 and 10. Saline i.v. on Days 2, 3, 11 and 12.
Cisplatin+CBP501: Cisplatin 4 mg/kg and CBP501 6 mg/kg i.v. on Day 1 and 10. Saline i.v. on Days 2, 3, 11 and 12.
Cisplatin+CBP501+anti-CTLA-4 antibody: anti-CTLA4 antibody 200 μg intraperitoneal injection (i.p.) on Days 1 and 5. Cisplatin 4 mg/kg and CBP501 6 mg/kg i.v. on Day 2.
Cisplatin+CBP501+anti-CTLA-4 antibody+TSA005: anti-CTLA4 antibody 200 μg i.p. on Days 1 and 5. Cisplatin 4 mg/kg and CBP501 6 mg/kg i.v. on Day 2. TSA005 100 μg i.v. twice on Day 3 and once on Day 4.
Diphenhydramine 10 mg/kg was given i.p. 15 min before CBP501 or 5% Glucose treatment. The size of tumor was measured thrice weekly with a pair of calipers to calculate tumor volume by using the following formula: volume (mm^3)=[(width)^2 (mm)×length (mm)]/2.
Colon cancer cells from the CT26 cell line were subcutaneously inoculated in BALB/c mice 5×10^5 cells/mouse. The treatment was initiated on day 1, when the tumor sizes of 6-8 mice per test group attained an average size of about 200 mm^3. A cycle of the treatment schedule, dose and the route of treatment are detailed below. […]

[3] = tested on: CT26 colon cancer cell line; experiment: Syngeneic mice model, TSA005 compared to TSA009 (FIG. 2); type: in vivo, BALB/c mice; conditions: 100 μg i.v. twice on Day 3 and once on Day 4; one cycle
Method: as §1, with “days later, the” for “days later”, “into 3” for “into 5”, “groups (6” for “groups (6-8”, “on Day 1.” for “on day1.”
Cisplatin+CBP501+anti-CTLA-4 antibody: anti-CTLA4 antibody 200 μg intraperitoneal injection (i.p.) on Days 3 and 5. Cisplatin 4 mg/kg and CBP501 6 mg/kg i.v. on Day 2. Saline i.v. twice on Day 3 and once on Day 4.
Cisplatin+CBP501+anti-CTLA-4 antibody+TSA005: anti-CTLA4 antibody 200 μg i.p. on Days 3 and 5. Cisplatin 4 mg/kg and CBP501 6 mg/kg i.v. on Day 2. TSA005 100 μg i.v. twice on Day 3 and once on Day 4.
Cisplatin+CBP501+anti-CTLA-4 antibody+TSA009: anti-CTLA4 antibody 200 μg i.p. on Days 3 and 5. Cisplatin 4 mg/kg and CBP501 6 mg/kg i.v. on Day 2. […] 100 μg i.v. twice on Day 3 and once on Day 4.
Diphenhydramine 10 mg/kg was given i.p. 15 min before CBP501 or 5% Glucose treatment. The size of tumor was measured thrice weekly with a pair of calipers to calculate tumor volume by using the following formula: volume (mm^3)=[(width)2 (mm)×length (mm)]/2.

Row | Substance | mouse body weight, compared with the triple drug combination [1] | CT26 tumor growth, conjugate added to Cisplatin+CBP501+anti-CTLA4 treatment [1] | tumor growth, TSA005 added to the CBP501+cisplatin combination ([2]; TSA005 100 μg i.v. Days 2, 3, 11 and 12, two cycles) | anti-tumor activity of TSA005 in combination with the two-drug or three-drug treatment regimen ([2]; TSA005 100 μg i.v., with CBP501+cisplatin or CBP501+cisplatin+anti-CTLA-4 antibody) | CT26 subcutaneous tumor growth, conjugate added to CBP501+cisplatin+anti-CTLA4 antibody [3] | subcutaneous tumor growth, CBP501+cisplatin combination versus cisplatin alone ([2]; Cisplatin 4 mg/kg and CBP501 6 mg/kg i.v. Day 1 and 10, CT26 in BALB/c mice, acetate salt)
1 | (GEGKGGr)4-K2-K-Cys(MI-CL264)-NH2 [TSA006] | did not change the mouse body weight further | further tumor growth suppression; also recorded: further suppressed the tumor growth | – | – | – | –
2 | (TLVSSLr)4-K2-K-Cys(MI-CL264)-NH2 [TSA005] | did not change the mouse body weight further | further tumor growth suppression; also recorded: further suppressed the tumor growth | further suppressed the tumor growth; also recorded: further reduced the growth of the tumor | enhanced anti-tumor activity; also recorded: reduced tumor growth further than the triple drug combination | suppressed CT26 subcutanous tumor growth more | –
3 | (TLVSSLr)8-K4-K2-K-Cys(MI-CL264)-NH2 [TSA009] | – | – | – | – | not and deleterious effect | –
4 | H-(D)p-benzoylphenylalanyl-(D)seryl-(D)tryptophanyl-(D)seryl-(D)pentafluorophenylalanyl-(D)cyclohexylalanyl-(D)arginyl-(D)arginyl- (D)arginyl-(D)glutaminyl-(D)arginyl-(D)arginine acetate salt [CBP501, reference compound] | – | – | – | – | – | suppressed subcutaneous tumor growth much better than cisplatin alone
